In US9260461B2, “Water-soluble derivatives and prodrugs of acacetin and methods of making and using thereof” (Versitech Limited, priority 2014, dated 2016):
In brackets after ≈: the same amount, converted by molar mass.

What was measured:
[1] = target: T1, Kv1.5 current (hKV1.5 gene expressed in HEK 293 cells) (Homo sapiens, UniProt P22460); experiment: Whole-cell patch-clamp, Kv1.5 current in HEK 293 cells; assay type: cell-based; settings: 30 μM, representative cells
T1 construct: expressed in transfected cells
T1 sequence (P22460 whole entry): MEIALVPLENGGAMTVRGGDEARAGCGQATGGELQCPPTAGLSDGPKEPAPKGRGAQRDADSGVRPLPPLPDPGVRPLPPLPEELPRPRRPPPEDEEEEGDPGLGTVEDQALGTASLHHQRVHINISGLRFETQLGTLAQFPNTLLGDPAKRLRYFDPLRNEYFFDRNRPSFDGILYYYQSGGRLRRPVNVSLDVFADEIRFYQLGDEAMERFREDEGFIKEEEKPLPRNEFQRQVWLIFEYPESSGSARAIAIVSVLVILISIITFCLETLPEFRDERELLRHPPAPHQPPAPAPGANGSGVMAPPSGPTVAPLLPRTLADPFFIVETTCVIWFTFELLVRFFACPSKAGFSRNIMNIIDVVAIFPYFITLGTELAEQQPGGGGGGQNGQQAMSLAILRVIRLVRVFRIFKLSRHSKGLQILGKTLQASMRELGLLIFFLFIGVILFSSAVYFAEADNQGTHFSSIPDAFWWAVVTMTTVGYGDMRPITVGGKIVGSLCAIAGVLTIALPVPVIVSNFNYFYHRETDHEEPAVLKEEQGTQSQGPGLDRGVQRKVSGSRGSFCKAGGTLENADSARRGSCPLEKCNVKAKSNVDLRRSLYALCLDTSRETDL
Experimental: (§1) HEK 293 cell line stably expressing the hKV1.5 gene (Wu et al., 2011) or hKv4.3 gene (Wu et al., 2013) was maintained in Dulbecco's modified eagle's medium (DMEM, Invitrogen, Hong Kong) supplemented with 10% fetal bovine serum and 400 μg/mL G418 in a 5% CO2 incubator. Cells were seeded on a glass cover slip for electrophysiology recording.
(§2) Ionic currents in HEK 293 cell lines and rat atrial myocytes were measured by the standard whole-cell patch-clamp technique using a standard pipette and bath solution with an EPC-10 amplifier and Pulse software (HEKA, Lambrecht, Germany). A 3M KCl-agar salt bridge was used as the reference electrode. The current signal was sampled at 5 kHz, recorded and stored in the hard disk of an IBM compatible computer. All experiments were conducted at room temperature (22-23° C.).
(§3) However, Kv1.5 current (FIG. 3D), Kv4.3 current (FIG. 3E) or IKACh (FIG. 3F) was inhibited by 10 μM acacetin in representative cells consistent with experimental reports.

[2] = Solubility of the purified prodrugs versus parent compound acacetin; assay type: physicochemical; settings: aqueous buffer; Tris solution, pH=7.0; read-out: solubility in Tris solution
Excerpt: Prodrug B: Light yellow solid. Yield 54%. C16H11O7PNa2 (408.21). EI-MS: m/z 387.04 [M+H—Na]^+. ^1H NMR (400 MHz, DMSO-d6): δ=12.90 (s, 1H), 8.04 (d, J=8.8 Hz, 2H), 7.10 (d, J=8.8 Hz, 2H), 7.02 (s, 1H), 6.98 (s, 1H), 6.60 (s, 1H), 3.89 (s, 3H) ppm.

[3] = target: T2, Kv4.3 current (hKv4.3 gene expressed in HEK 293 cells) (Homo sapiens, UniProt Q9UK17); experiment: Whole-cell patch-clamp, Kv4.3 current in HEK 293 cells; assay type: cell-based; settings: 30 μM, representative cells
T2 construct: expressed in transfected cells
T2 sequence (Q9UK17 1-655): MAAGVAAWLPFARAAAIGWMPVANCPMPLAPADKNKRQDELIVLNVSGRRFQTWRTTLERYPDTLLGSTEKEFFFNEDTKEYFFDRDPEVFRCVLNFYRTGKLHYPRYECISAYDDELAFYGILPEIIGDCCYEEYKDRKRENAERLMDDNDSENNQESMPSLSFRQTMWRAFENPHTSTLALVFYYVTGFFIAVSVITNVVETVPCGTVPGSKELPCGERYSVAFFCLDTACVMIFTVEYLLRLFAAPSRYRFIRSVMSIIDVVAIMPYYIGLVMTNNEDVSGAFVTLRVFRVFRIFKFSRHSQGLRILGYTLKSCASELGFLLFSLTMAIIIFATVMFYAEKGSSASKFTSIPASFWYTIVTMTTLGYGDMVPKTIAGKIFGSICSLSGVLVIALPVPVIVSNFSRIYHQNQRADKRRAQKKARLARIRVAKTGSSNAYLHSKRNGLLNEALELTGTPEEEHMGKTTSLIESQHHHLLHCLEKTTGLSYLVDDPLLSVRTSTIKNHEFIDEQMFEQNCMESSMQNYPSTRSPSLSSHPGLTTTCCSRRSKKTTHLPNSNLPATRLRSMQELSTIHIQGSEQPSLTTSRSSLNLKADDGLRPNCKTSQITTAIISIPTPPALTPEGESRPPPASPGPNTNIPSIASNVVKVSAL
Experimental: as §1, §2, §3

[4] = system: ventricular arrhythmias induced by ischemia-reperfusion injury; experiment: Ischemia-reperfusion model in anesthetized rats (ventricular arrhythmias, heart rate, left ventricular contractile function); assay type: in vivo, Sprague-Dawley (SD) rats; settings: for incidence of severe ventricular fibrillation: 90% in vehicle, P<0.05
Experimental: Adult male Sprague-Dawley (SD) rats (250-300 g) were anesthetized with pentobarbital (30 mg/kg i.p.), supplemented during the experiment when needed. The animal was intubated and ventilated. Body temperature was maintained at 37° C. with a temperature control system. The jugular vein was cannulated for drug administration and a plastic tubing (0.8 mm OD) was introduced into the left ventricle through the […] to measure the contractile function (e.g. left ventricular pressure). The left chest was opened under ventilation to expose the coronary artery. A fine silk was introduced at the upper ⅓ left anterior coronary descending artery (LA). After a 10-min stabilization period, the drug at 5, 10, or 20 mg/kg was intravenously administrated respectively in 5 min, and an equal volume (1 mL/kg) of vehicle was administrated for the control. LAD was then ligated for 10 min followed a 30-min reperfusion. ECG and blood pressure signals were continuously monitored and stored on an IBM compatible PC computer using a multiple channels data acquisition system (RM-6280C, Chengdu Instrument Ltd, Chendu, China) to record the incidence of ventricular arrhythmia (i.e. fibrillation, tachycardia, and premature beats) and […].
To investigate the effects of water-soluble Prodrug A on ventricular arrhythmias induced by ischemia-reperfusion injury, the in vivo ischemia-reperfusion model was established in SD rats. In this model, the animal, ventricular arrhythmias, including premature ventricular beats (PVBs), and ventricular tachycardia (VT), were developed with 10 min ischemia (ligation of coronary anterior descending artery) followed by […]. Ventricular fibrillation was frequently observed during the early reperfusion in the control animal with intravenous vehicle (FIG. 1A), but not in the animal treated with intravenous Prodrug A (10 mg/kg for 5 min, FIG. 1B). Prodrug A at 5 mg, 10, and 20 mg/kg decreased arrhythmia score (FIG. 1C) and arrhythmia duration in a dose-dependent manner (P<0.05 or P<0.01 vs. vehicle).
In addition to the anti-ventricular fibrillation, Prodrug A prevented heart rate reduction (FIG. 2A), and improved the decreased function contractile function including left ventricular systolic pressure (FIG. 2B), development pressure (FIG. 2C), and +dP/dT (FIG. 2D) induced by ischemia and/or reperfusion injury in a dose-dependent manner (P<0.05 or P<0.01 vs. vehicle).

[5] = 10 mg and 20 mg/kg, before ligation
[6] = 5, 10 and 20 mg/kg i.v., dose-dependent, P<0.05 or P<0.01 vs. vehicle
[7] = i.v., dose-dependent, P<0.05 or P<0.01 vs. vehicle

COc1ccc(-c2cc(=O)c3c(O)cc(OP(=O)(O)O)cc3o2)cc1 [Prodrug A]
effect on Kv1.5 current [1]: no inhibitory effect | solubility [2]: 10000 µg/mL (≈ 27.5 mM) | effect on Kv4.3 current [3]: no inhibitory effect | heart rate before coronary artery ligation [4, 5]: without affecting | left ventricular development pressure before coronary artery ligation [4, 5]: slightly but significantly increased | left ventricular systolic pressure before coronary artery ligation [4, 5]: slightly but significantly increased | incidence of severe ventricular fibrillation ([4]; 10 mg/kg i.v.): 30% | incidence of severe ventricular fibrillation ([4]; 20 mg/kg i.v.): 20% | arrhythmia duration [4, 6]: decreased | arrhythmia score [4, 6]: decreased | decreased +dP/dT induced by ischemia and/or reperfusion injury [4, 7]: improved | decreased left ventricular development pressure induced by ischemia and/or reperfusion injury [4, 7]: improved | decreased left ventricular systolic pressure induced by ischemia and/or reperfusion injury [4, 7]: improved | heart rate reduction induced by ischemia and/or reperfusion injury [4, 7]: prevented
